Source: patent publication US6969721B2, “Tricyclic-2-pyridone compounds useful as HIV reverse transcriptase inhibitors” (Bristol-Myers Squibb Pharma, priority 2000, dated 2005)
In brackets after ≈: the same amount, converted by molar mass.

Tested on: HIV-1 (RF)
Assay: HIV RNA assay, microplate based compound evaluation in HIV-1 infected MT-2 cells
Assay type: cell-based
Details: Human immunodeficiency virus 1, MT2, 72 h; HIV-1 (RF) in MT-2 cells, 3 days culture; virus dilutions selected to give this value; read-out: IC90 value (concentration of compound required to reduce the HIV RNA level by 90%)
Procedure: MT-2 and MT-4 cells were maintained in RPMI 1640 supplemented with 5% fetal calf serum (FCS) for MT-2 cells or 10% FCS for MT-4 cells, 2 mM L-glutamine and 50 μg/mL gentamycin, all from Gibco. HIV-1 RF was propagated in MT-4 cells in the same medium. Virus stocks were prepared approximately 10 days after acute infection of MT-4 cells and stored as aliquots at −70° C. Infectious titers of HIV-1(RF) stocks were 1-3×10^7 PFU (plaque forming units)/mL as measured by plaque assay on MT-2 cells (see below) Each aliquot of virus stock used for infection was thawed only once.
For evaluation of antiviral efficacy, cells to be infected were subcultured one day prior to infection. […]
Cell lysates or purified RNA in 3 M or 5 M GED were mixed with 5 M GED and capture probe to a final guanidinium isothiocyanate concentration of 3 M and a final biotin oligonucleotide concentration of 30 nM. […] Immobilized alkaline phosphatase activity was detected by addition of 100 μL of 0.2 mM 4-methylumbelliferyl phosphate (MUBP, JBL Scientific) in buffer (2.5 M diethanolamine pH 8.9 (JBL Scientific), 10 MM MgCl2, 5 mM zinc acetate dihydrate and 5 mM N-hydroxyethyl-ethylene-diamine-triacetic acid). […] Fluorescence at […] was measured using a microplate fluorometer (Dynateck) exciting at […]. […]

## Nc1ccn([C@H]2CC[C@@H](CO)O2)c(=O)n1 [ddC, 2′,3′-dideoxycytidine]
  IC90: 0.2 µg/mL (≈ 0.947 µM)
